Experimental data published in patent US20140296212A1, “SUBSTITUTED PHENOXYPROPYLCYCLOAMINE DERIVATIVES AS HISTAMINE-3 (H3) RECEPTOR LIGANDS” (CEPHALON, INC., priority 2009, published 2014).

Legend:
[1] = biological target: T1, human H3 receptor (Homo sapiens, UniProt Q9Y5N1); experiment: Human H3 radioligand binding ([3H]-N-alpha-methylhistamine, SPA); details: membranes of CHO cells expressing human H3
T1 construct: expressed in transfected cells
Summary of the method: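 Membranes from H3-expressing cells (10 μg protein/well) in 50 mM Tris HCl pH 7.4, 5 mM MgCl2, 0.1% BSA with ~1 nM [3H]-N-alpha-methylhistamine and compound (0.01 nM–30 μM), SPA beads, 4 h, room temperature, dark. Non-specific binding defined with 10 μM clobenpropit; bound radioligand read by scintillation counting.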

[2] = biological target: T2, rat histamine H3 receptor (Rattus norvegicus, UniProt Q9QYN8); experiment: Rat H3 radioligand binding ([3H]-N-alpha-methylhistamine, SPA); details: membranes of CHO-A3 cells expressing rat H3; [3H]-N-alpha-methylhistamine; read-out: Rat H3 Ki
T2 construct: encoding the entire 445-amino-acid rat histamine H3 receptor; expressed in transfected cells
Summary of the method: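 Membranes from CHO-A3 cells stably expressing full-length rat H3 receptor (445 aa) incubated with ~1 nM [3H]-N-alpha-methylhistamine and compound (0.01 nM–30 μM) in 50 mM Tris HCl pH 7.4, 5 mM MgCl2, 0.1% BSA, 4 h, room temperature; SPA bead read-out. Non-specific binding defined with 10 μM clobenpropit.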

T2 sequence (Q9QYN8 whole entry): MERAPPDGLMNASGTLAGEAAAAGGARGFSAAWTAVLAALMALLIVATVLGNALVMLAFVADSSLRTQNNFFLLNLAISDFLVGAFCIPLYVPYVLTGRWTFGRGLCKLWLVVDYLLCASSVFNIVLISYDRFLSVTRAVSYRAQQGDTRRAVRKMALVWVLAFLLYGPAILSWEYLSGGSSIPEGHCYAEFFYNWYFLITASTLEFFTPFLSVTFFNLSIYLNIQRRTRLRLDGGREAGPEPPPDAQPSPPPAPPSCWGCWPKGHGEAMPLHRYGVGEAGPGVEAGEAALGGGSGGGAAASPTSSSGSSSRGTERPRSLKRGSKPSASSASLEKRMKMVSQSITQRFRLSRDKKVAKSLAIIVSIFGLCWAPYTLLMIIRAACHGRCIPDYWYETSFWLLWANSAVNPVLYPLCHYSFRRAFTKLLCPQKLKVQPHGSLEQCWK
T1 sequence (Q9Y5N1 whole entry): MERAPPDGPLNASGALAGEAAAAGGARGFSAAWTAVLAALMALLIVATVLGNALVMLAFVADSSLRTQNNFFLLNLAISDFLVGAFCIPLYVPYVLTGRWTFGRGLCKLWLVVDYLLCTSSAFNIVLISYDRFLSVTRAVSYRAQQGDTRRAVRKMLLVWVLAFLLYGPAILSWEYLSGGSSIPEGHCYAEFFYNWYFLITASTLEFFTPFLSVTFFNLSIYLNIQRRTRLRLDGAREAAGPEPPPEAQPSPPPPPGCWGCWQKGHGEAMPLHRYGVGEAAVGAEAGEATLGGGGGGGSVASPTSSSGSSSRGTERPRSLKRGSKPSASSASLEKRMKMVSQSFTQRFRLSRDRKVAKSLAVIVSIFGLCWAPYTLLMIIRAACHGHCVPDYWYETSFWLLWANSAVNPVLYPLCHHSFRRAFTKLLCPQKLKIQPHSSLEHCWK

SMILES	Ki [1]	melting point	Ki [2]
C[C@@H]1CCCN1CCCOc1c(Cl)cc(C(=O)CN2CCC(F)(F)CC2)cc1Cl [Example 98, 1-{3,5-Dichloro-4-[3-((R)-2-methyl-pyrrolidin-1-yl)-propoxy]-phenyl}-2-(4,4-difluoro-piperidin-1-yl)-ethanone]	0.1 to 100 nM	102 °C	> 1000 nM
C[C@@H]1CCCN1CCCOc1ccc(C(=O)CN2CCN(C(=O)c3ccco3)CC2)cc1 [Example 81, 2-[4-(Furan-2-carbonyl)-piperazin-1-yl]-1-{4-[3-((R)-2-methyl-pyrrolidin-1-yl)-propoxy]-phenyl}-ethanone]	0.1 to 100 nM	130 to 135 °C	0.1 to 100 nM
CC(C)C(=O)N1CCN(CC(=O)c2ccc(OCCCN3CCC[C@H]3C)cc2)CC1 [Example 77, 2-Methyl-1-[4-(2-{4-[3-((R)-2-methyl-pyrrolidin-1-yl)-propoxy]-phenyl}-2-oxo-ethyl)-piperazin-1-yl]-propan-1-one]	0.1 to 100 nM	220 to 226 °C	0.1 to 100 nM
C[C@@H]1CCCN1CCCOc1ccc(C(=O)CN2CCCC(C)(C)C2)cc1 [Example 55, 2-(3,3-Dimethyl-piperidin-1-yl)-1-{4-[3-((R)-2-methyl-pyrrolidin-1-yl)-propoxy]-phenyl}-ethanone]	0.1 to 100 nM	108 to 120 °C	0.1 to 100 nM
COC[C@H]1CCCN1CCCOc1ccc(C(=O)CN2CCOCC2)cc1 [Example 71, 1-{4-[3-((R)-2-Methoxymethyl-pyrrolidin-1-yl)-propoxy]-phenyl}-2-morpholin-4-yl-ethanone]	> 1000 nM	> 200 °C (dec.)	> 1000 nM
C[C@@H]1CCCN1CCCOc1ccc(C(=O)CN2CCN(C(=O)c3ccc(C(F)(F)F)cc3)CC2)cc1 [Example 92, 1-{4-[3-((R)-2-Methyl-pyrrolidin-1-yl)-propoxy]-phenyl}-2-[4-(4-trifluoromethyl-benzoyl)-piperazin-1-yl]-ethanone]	0.1 to 100 nM	227 to 230 °C	0.1 to 100 nM
C[C@@H]1CCCN1CCCOc1ccc(C(=O)CN2CCN(c3ncccn3)CC2)cc1 [Example 90, 1-{4-[3-((R)-2-Methyl-pyrrolidin-1-yl)-propoxy]-phenyl}-2-(4-pyrimidin-2-yl-piperazin-1-yl)-ethanone]	0.1 to 100 nM	112 to 114 °C	0.1 to 100 nM
CS(=O)(=O)N1CCN(CCCOc2ccc(C(=O)CN3CCOCC3)cc2)CC1 [Example 59, 1-{4-[3-(4-Methanesulfonyl-piperazin-1-yl)-propoxy]-phenyl}-2-morpholin-4-yl-ethanone]	> 1000 nM	246 to 248 °C	> 1000 nM
C[C@@H]1CCCN1CCCOc1ccc(C(=O)CN2CCN(C(=O)c3ccc(F)cc3)CC2)cc1 [Example 101, 2-[4-(4-Fluoro-benzoyl)-piperazin-1-yl]-1-{4-[3-((R)-2-methyl-pyrrolidin-1-yl)-propoxy]-phenyl}-ethanone]	0.1 to 100 nM	225 to 229 °C	0.1 to 100 nM
C[C@@H]1CCCN1CCCOc1ccc(C(=O)CN2CCN(C(=O)Oc3ccc(F)cc3)CC2)cc1 [Example 149, 4-(2-{4-[3-((R)-2-Methyl-pyrrolidin-1-yl)-propoxy]-phenyl}-2-oxo-ethyl)-piperazine-1-carboxylic acid 4-fluoro-phenyl ester]	0.1 to 100 nM	234 to 236 °C	0.1 to 100 nM
C[C@@H]1CCCN1CCCOc1ccc(C(=O)CN2CCN(C(=O)Oc3ccccc3)CC2)cc1 [Example 128, 4-(2-{4-[3-((R)-2-Methyl-pyrrolidin-1-yl)-propoxy]-phenyl}-2-oxo-ethyl)-piperazine-1-carboxylic acid phenyl ester]	0.1 to 100 nM	194 to 199 °C	0.1 to 100 nM
C[C@@H]1CCCN1CCCOc1ccc(C(=O)CN2CCN(C(=O)c3cccs3)CC2)cc1 [Example 80, 1-{4-[3-((R)-2-Methyl-pyrrolidin-1-yl)-propoxy]-phenyl}-2-[4-(thiophene-2-carbonyl)-piperazin-1-yl]-ethanone]	0.1 to 100 nM	152 to 156 °C	0.1 to 100 nM

Continued, values first:

Ki [1]	melting point	Ki [2]	SMILES
0.1 to 100 nM	206 °C	0.1 to 100 nM	C[C@@H]1CCCN1CCCOc1ccc(C(=O)CN2CCC(F)(F)C2)cc1F [Example 139, 2-(3,3-Difluoro-pyrrolidin-1-yl)-1-{3-fluoro-4-[3-((R)-2-methyl-pyrrolidin-1-yl)-propoxy]-phenyl}-ethanone]
0.1 to 100 nM	110 to 120 °C	101 to 500 nM	C[C@@H]1CCCN1CCCOc1cccc(C(=O)CN2CCC(F)(F)CC2)c1 [Example 154, 2-(4,4-Difluoro-piperidin-1-yl)-1-{3-[3-((R)-2-methyl-pyrrolidin-1-yl)-propoxy]-phenyl}-ethanone]
0.1 to 100 nM	239 to 242 °C	0.1 to 100 nM	C[C@@H]1CCCN1CCCOc1ccc(C(=O)CN2CCN(c3ccccn3)CC2)cc1 [Example 116, 1-{4-[3-((R)-2-Methyl-pyrrolidin-1-yl)-propoxy]-phenyl}-2-(4-pyridin-2-yl-piperazin-1-yl)-ethanone]
0.1 to 100 nM	122 to 124 °C	101 to 500 nM	COC(=O)N1CCN(CC(=O)c2ccc(OCCCN3CCC[C@H]3C)c(Cl)c2)CC1 [Example 132, 4-(2-{3-Chloro-4-[3-((R)-2-methyl-pyrrolidin-1-yl)-propoxy]-phenyl}-2-oxo-ethyl)-piperazine-1-carboxylic acid methyl ester]
0.1 to 100 nM	96 °C	0.1 to 100 nM	C[C@@H]1CCCN1CCCOc1ccc(C(=O)CN2CCN(C(=O)c3ccccc3)CC2)cc1F [Example 120, 2-(4-Benzoyl-piperazin-1-yl)-1-{3-fluoro-4-[3-((R)-2-methyl-pyrrolidin-1-yl)-propoxy]-phenyl}-ethanone]
0.1 to 100 nM	140 °C	0.1 to 100 nM	C[C@@H]1CCCN1CCCOc1ccc(C(=O)CN2CCN(c3ccccc3)CC2)cc1F [Example 143, 1-{3-Fluoro-4-[3-((R)-2-methyl-pyrrolidin-1-yl)-propoxy]-phenyl}-2-(4-phenyl-piperazin-1-yl)-ethanone]
0.1 to 100 nM	236 °C	0.1 to 100 nM	COC(=O)N1CCN(CC(=O)c2ccc(OCCCN3CCC[C@H]3C)c(F)c2)CC1 [Example 127, 4-(2-{3-Fluoro-4-[3-((R)-2-methyl-pyrrolidin-1-yl)-propoxy]-phenyl}-2-oxo-ethyl)-piperazine-1-carboxylic acid methyl ester]
0.1 to 100 nM	115 to 117 °C	0.1 to 100 nM	C[C@@H]1CCCN1CCCOc1ccc(C(=O)CN2CCN(C(=O)c3ccc(F)cc3F)CC2)cc1 [Example 126, 2-[4-(2,4-Difluoro-benzoyl)-piperazin-1-yl]-1-{4-[3-((R)-2-methyl-pyrrolidin-1-yl)-propoxy]-phenyl}-ethanone]
0.1 to 100 nM	115.4 to 120 °C	0.1 to 100 nM	C[C@@H]1CCCN1CCCOc1ccc(C(=O)CN2CCN(C(=O)c3ccc4ccccc4n3)CC2)cc1 [Example 145, 1-{4-[3-((R)-2-Methyl-pyrrolidin-1-yl)-propoxy]-phenyl}-2-[4-(quinoline-2-carbonyl)-piperazin-1-yl]-ethanone]
